The subject of experiment [1] is Grosmannia clavigera. Kind of experiment: disk diffusion assay. The experiment is classed as cell-based. The note with it: G. clavigera; 50-300 μg per disk. The method, then:
(§1) The second assay is based on the standard “disk diffusion assay” routinely used in antimicrobial testing. Fungi are grown and harvested as for the microplate assay. After diluting 1:10, 150 μl of filtered conidia are spread evenly onto an Malt Extract Agar (MEA) plate. For each plate, 50 μg (0.12 μmole), 100 μg (0.25 μmole), 200 μg (0.50 μmole) and 300 μg (0.75 μmole) of the appropriate molecule (dissolved in DMSO) are spotted onto four separate Whatman Grade AA 6 mm filter disks. A control disk with 20 μl of DMSO only is also prepared. The DMSO is allowed to evaporate completely from each disk at room temperature and then the molecule-impregnated disks are positioned equidistant from each other on a plate. Plates are incubated at room temperature for 3 to 7 days, depending on the fungal species. At the end of the incubation period, the zone of inhibition (i.e., the region around each disk where no growth is visible) is measured from edge to edge of visible growth across and over the center of the disk. Images of the disk assays are obtained using an Epson Perfection V750 Pro desktop scanner.
(§2) Strains of G. clavigera, O. montium and C. brevicomi were obtained from Dr. Diana Six at the University of Montana and maintained on MEA plates (see below) at room temperarture.
(§3) Each small molecule was dissolved in dimethyl sulfoxide (DMSO) as a 10 mM stock and diluted directly into 100 μl of the appropriate YPD medium at 50 μM, 100 μM, 200 μM and 300 μM final concentration (for the microplate assay) or spotted onto Whatman 6 mm filter disks in 50 microgram (μg), 100 μg, 200 μg or 300 μg amounts (for the disk diffusion assay). The control condition (no small molecule) included DMSO to a concentration equivalent to that of the small molecule-containing wells or filter disks.
(§4) In order to identify additional inhibitors of morphogenesis, we employed a core structure search of the Chembridge chemical database and identified 72 compounds of related structure to BH3I-1 (the “core structure” used in the database searches was defined as the benzylidene group attached to a thiazolidine ring). The BH3I-1-related molecules were tested in the disk diffusion assay (200 μg per disk) for anti-fungal activity against all three species of bark beetle-associated fungi. […] These molecules were retested three separate times with 50, 100, 200 and 300 μg per disk (FIGS. 6, 7, 8, 9, 10).

The subject of experiment [2] is Ceratocystiopsis brevicomi. Kind of experiment: disk diffusion assay. The note with it: C. brevicomi; 50-300 μg per disk. Format: cell-based. How it is done:
as §1, §2, §3, §4

In experiment [3] the test system is Ophiostoma montium. Kind of experiment: disk diffusion assay. The note with it: O. montium; 50-300 μg per disk. The experiment is classed as cell-based. How it is done: as §1, §2, §3, §4
A further experiment has as its system C. albicans. The settings on record: previous finding of the inventors (ref. 5); cited from earlier work.
The test system of experiment [4] is Grosmannia clavigera. Briefly: microplate assay (conidial germination and mycelial growth). The settings on record: G. clavigera. Format: cell-based. The method, then: (§5) In the first assay, referred to as the “microplate assay”, fungi are first grown in liquid medium at 25° C. for 48 hours, and conidia are harvested by filtration through cheese cloth. The conidia are then transferred to the wells of an optical microplate containing (i) growth medium and (ii) varying concentrations of BH3I-1 (typically 0, 50, 100, 200 and 300 μM BH3I-1). The microplates are incubated for up to 120 hrs at 25° C. Germination and mycelial growth are monitored visually with a Nikon TE200 inverted microscope and spectrophotometrically in a Biotek Synergy H4 plate reader. For the spectrophotometric analysis, Optical Density 600 (OD600) readings are taken every six hours over the course of the experiment.
as §2
(§6) YPD medium (1% Yeast Extract, 2% Peptone and 2% Dextrose), a standard fungal growth medium, is used for these experiments. YPD plates included 1.5% agar.
as §3

Experiment [5] concerns Ceratocystiopsis brevicomi. The description is as above. The note with it: C. brevicomi. The experiment is classed as cell-based. The method, then:
as §5, §2, §6, §3

Experiment [6] concerns Ophiostoma montium. Described as above. Format: cell-based. The settings on record: O. montium. The method, then:
as §5, §2, §6, §3

Regarding `CC(C)c1ccc(C=C2SC(=S)N(CC(=O)O)C2=O)cc1` [BH3I-1-68, [5-(4-isopropylbenzylidene)-4-oxo-2-thioxo-1,3-thiazolidin-3-yl]acetic acid], the “anti-fungal activity (inhibition of conidial germination and mycelial growth)” value with Grosmannia clavigera [1] was “inhibit the conidial germination and mycelial growth”; in experiment [2], “inhibit the conidial germination and mycelial growth”; in the experiment on Ophiostoma montium [3], “inhibit the conidial germination and mycelial growth”.
Regarding `CCCC(C(=O)O)N1C(=O)C(=Cc2ccccc2Cl)SC1=S` (stereo not drawn) [BH3I-1-69, 2-[5-(2-chlorobenzylidene)-4-oxo-2-thioxo-1,3-thiazolidin-3-yl]pentanoic acid], the “anti-fungal activity (inhibition of conidial germination and mycelial growth)” value in the experiment on Grosmannia clavigera [1] is “inhibit the conidial germination and mycelial growth”; in experiment [2], “inhibit the conidial germination and mycelial growth”; in the experiment with Ophiostoma montium [3], “inhibit the conidial germination and mycelial growth”.
For `CCCC(C(=O)O)N1C(=O)C(=Cc2ccc(O)cc2)SC1=S` (stereo not drawn) [BH3I-1-66, 2-[5-(4-hydroxybenzylidene)-4-oxo-2-thioxo-1,3-thiazolidin-3-yl]pentanoic acid], the “anti-fungal activity (inhibition of conidial germination and mycelial growth)” value with Grosmannia clavigera [1] is “inhibit the conidial germination and mycelial growth”; in experiment [2] it was “inhibit the conidial germination and mycelial growth”; in the experiment on Ophiostoma montium [3], “inhibit the conidial germination and mycelial growth”.
Turning to `CC(C)C(C(=O)O)N1C(=O)C(=Cc2ccc(Br)cc2)SC1=S` (stereo not drawn) [BH3I-1, 5-(p-Bromobenzylidine)-α-isopropyl-4-oxo-2-thioxo-3-thiozolidineacetic acid], the “anti-fungal activity (inhibition of conidial germination and mycelial growth)” value in the experiment on Grosmannia clavigera [1] is “inhibit the conidial germination and mycelial growth”; in experiment [2], “inhibit the conidial germination and mycelial growth”; in the experiment with Ophiostoma montium [3], “inhibit the conidial germination and mycelial growth”. In addition, in the experiment with C. albicans, the “inhibition of morphogenesis (yeast-to-filamentous growth transition)” value is on record as “inhibits”. In addition, the “conidial cells failed to germinate” value in the experiment with Grosmannia clavigera [4] (100 μM) is reported as “approximately 80%”. Moreover, the “mycelial growth of conidia that did germinate” value in the experiment on Grosmannia clavigera [4] (100 μM) is “mycelia grew for a few hours and then stopped”. Besides, in the experiment with Grosmannia clavigera [4] (25° C., YPD), the “time for which growth inhibition was maintained” value came to 120 h. Besides, the “inhibition of conidial germination and mycelial growth” value in experiment [5] is “inhibited conidial germination and mycelial growth”; in the experiment with Ophiostoma montium [6], “inhibited conidial germination and mycelial growth”.
Take `CC(C)C(C(=O)O)N1C(=O)C(=Cc2ccc(Cl)cc2)SC1=S` (stereo not drawn) [BH3I-1-12, 2-[5-(4-chlorobenzylidene)-4-oxo-2-thioxo-1,3-thiazolidin-3-yl]-3-methylbutanoic acid]: the “anti-fungal activity (inhibition of conidial germination and mycelial growth)” value with Grosmannia clavigera [1] is “inhibit the conidial germination and mycelial growth”; in experiment [2], “inhibit the conidial germination and mycelial growth”; in the experiment on Ophiostoma montium [3], “inhibit the conidial germination and mycelial growth”.

These data come from US20170000126A1, “METHOD FOR INHIBITING CONIDIAL GERMINATION AND MYCELIAL GROWTH OF FUNGI SYMBIOTICALLY ASSOCIATED WITH BARK BEETLES” (Montana State University - Billings, priority 2015, published 2017).
